These results are taken from ChEMBL document CHEMBL1148239, “Studies on intestinal permeability of cirrhotic patients by analysis lactulose and mannitol in urine with HPLC/RID/MS” (Bioorg Med Chem Lett, 2004).

“And” between values parts separate entries of the source, which are not always exact repeats. Equal values may be shown once.

For data set [1], the species on record is Homo sapiens. Kind of data set: Ratio of lactulose and mannitol in cirrhotic patients of sterile ascitic fluid (Group C). It is filed as ADME, organism-based. Conditions: in vivo.
For data set [2], the system named is Homo sapiens. Kind of data set: Ratio of percent compound before and after dosing in cirrhotic patients of spontaneous ascitic fluid infection. It is filed as ADME, organism-based. To be noted: in vivo.
The nature of data set [3]: Percent recovery of 100 ug/mL compound after administration in cirrhotic patients. The class given is ADME. To be noted: human, in vivo.
Data set [4] is described as follows: Percent of compound in cirrhotic patients of spontaneous ascitic fluid infection before dosing with normal antibiotics. To be noted: human, in vivo. It is filed as ADME.
In data set [5] the test system is Homo sapiens. Kind of data set: Ratio of percent compound after dosing in cirrhotic patients of spontaneous ascitic fluid infection. The class given is ADME, organism-based. Conditions: in vivo.
Data set [6] can be described thus: Percent recovery of 10 ug/mL compound after administration in cirrhotic patients. It is filed as ADME. Conditions: human, in vivo.
The test system of data set [7] is Homo sapiens. Kind of data set: Ratio of percent compound before dosing in cirrhotic patients of spontaneous ascitic fluid infection. The class given is ADME, organism-based. Conditions: in vivo.
A short description of data set [8]: Percent of compound in cirrhotic patients of spontaneous ascitic fluid infection after dosing with normal antibiotics. Conditions: human, in vivo. The class given is ADME.
The nature of data set [9]: Percent of compound in cirrhotic patients of spontaneous ascitic fluid infection after dosing with normal antibiotics and lactose. It is filed as ADME. To be noted: human, in vivo.
A short description of data set [10]: Percent of compound in healthy individuals (Group D). It is filed as ADME. Conditions: human.
A short description of data set [11]: Percent of compound in cirrhotic patients of sterile ascitic fluid (Group C). To be noted: human. The class given is ADME.
Data set [12] in a line: Percent of compound in cirrhotic patients of spontaneous ascitic fluid infection before dosing with normal antibiotics and lactose. The class given is ADME. Conditions: human, in vivo.
A short description of data set [13]: Percent of compound in cirrhotic patients of spontaneous ascitic fluid infection (Group A and B). It is filed as ADME. Conditions: human.
Data set [14] is filed under the species Homo sapiens. Kind of data set: Ratio of lactulose and mannitol in healthy individuals (Group D). It is filed as ADME, organism-based. Conditions: in vivo.
Data set [15] is described as follows: Percent recovery of 500 ug/mL compound after administration in cirrhotic patients. To be noted: human, in vivo. It is filed as ADME.
The species named for data set [16] is Homo sapiens. Kind of data set: Ratio of lactulose and mannitol in cirrhotic patients of spontaneous ascitic fluid infection (Group A and B). Conditions: in vivo. It is filed as ADME, organism-based.

Regarding `OC[C@@H](O)[C@@H](O)[C@H](O)[C@H](O)CO` [MANNITOL], the Ratio is 0.0715 in the data set filed under Homo sapiens [1]; 0.0985 with Homo sapiens [2]; 0.0814 and 0.0572 in the data set on Homo sapiens [5]; 0.1009 with Homo sapiens [7]; 0.0209 in the data set filed under Homo sapiens [14]; 0.1003 in the data set listed under Homo sapiens [16]. Besides, the Recovery in data set [3] was found to be 95.2%; in data set [6], 93.3%; in [15], 97.1%. For the same compound, the Activity in [4] is recorded as 0.0735%; in data set [8] it was 0.0782%; in data set [9], 0.0732%; in [10], 0.0838%; in data set [11], 0.0691%; in data set [12], 0.0733%. In addition, in [13], the Activity came out at 0.0741%.

With `OC[C@H]1O[C@@H](O[C@@H]2[C@@H](CO)O[C@](O)(CO)[C@H]2O)[C@H](O)[C@@H](O)[C@H]1O` [LACTULOSE], the Ratio in the data set listed under Homo sapiens [1] was 0.0715; with Homo sapiens [2] it was 0.1009; in the data set with Homo sapiens [5], 0.0814 and 0.0572; in the data set with Homo sapiens [7] it was 0.1009; in the data set filed under Homo sapiens [14], 0.0209; in the data set filed under Homo sapiens [16] it was 0.1003. Further, the values for the Recovery in [3], in [6] and in data set [15] were 93.7%, 93.1% and 97%, respectively. Besides, the Activity in [4] was 0.007%; in data set [8], 0.006%; in data set [9], 0.0044%; in data set [10], 0.00177%; in data set [11], 0.00476%; in [12], 0.0071%. In data set [13], this compound showed an Activity of 0.00719%.
